Experimental data taken from ChEMBL document CHEMBL5325501, “Discovery of BWA-522, a First-in-Class and Orally Bioavailable PROTAC Degrader of the Androgen Receptor Targeting N-Terminal Domain for the Treatment of Prostate Cancer” (J Med Chem, 2023).
Calls of active or inactive are those of the source. The rule behind the calls is not given here.

Legend:
VCaP [1] = assay: Downregulation of PSA protein level in human VCaP cells incubated for 48 hrs by Western blot analysis; assay type: functional, cell-based; conditions: dose 1-10 µM
[2] = AUC(0 to t) in ICR mouse at 2 mg/kg, iv measured by LC-MS/MS analysis; assay type: ADME, organism-based; parameters: dose 2 mg/kg, route iv; conditions: in vivo
[3] = Downregulation of FKBP51 protein level in human LNCaP cells at 10 uM incubated for 48 hrs by Western blot analysis relative to control; assay type: functional
[4] = Toxicity in ICR mouse assessed as lung damage at 20 to 60 mg/kg, po administered daily for 14 days; assay type: organism-based; conditions: in vivo, 336 h, dose 20-60 mg/kg, time 14 day
CWR22R = assay: Antiproliferative activity against enzalutamide-resistant human 22Rv1 cells assessed as reduction in cell viability incubated for 6 days by CCK-8 assay; assay type: functional, cell-based; conditions: 22Rv1, 144 h
[5] = AUC(0 to t) in beagle dog at 5 mg/kg, po measured by LC-MS/MS analysis; assay type: ADME, organism-based, Canis lupus familiaris; parameters: dose 5 mg/kg, route po; conditions: in vivo
[6] = Oral bioavailability in ICR mouse at 10 mg/kg measured by LC-MS/MS analysis; assay type: ADME, organism-based; conditions: in vivo
[7] = Downregulation of TMPRSS2 protein level in human LNCaP cells at 10 uM incubated for 48 hrs by Western blot analysis relative to control; assay type: functional
[8] = Toxicity in ICR mouse assessed as body weight loss at 20 to 60 mg/kg, po administered daily for 14 days; assay type: organism-based; conditions: in vivo, 336 h, dose 20-60 mg/kg, time 14 day
[9] = Half-life in ICR mouse at 2 mg/kg, iv measured by LC-MS/MS analysis; assay type: ADME, organism-based; conditions: in vivo
[10] = Clearance in beagle dog at 1 mg/kg, iv measured by LC-MS/MS analysis; assay type: ADME, organism-based, Canis lupus familiaris; conditions: in vivo
[11] = Toxicity in NOD SCID mouse xenografted with human LNCaP cells assessed as body weight loss at 20 to 60 mg/kg, po administered daily for 4 weeks; assay type: organism-based; conditions: in vivo, 672 h, dose 20-60 mg/kg
[12] = Tmax in ICR mouse at 10 mg/kg, po measured by LC-MS/MS analysis; assay type: ADME, organism-based; conditions: in vivo
[13] = Downregulation of PSA protein level in human VCaP cells at 10 uM incubated for 48 hrs by Western blot analysis relative to control; assay type: functional
VCaP [14] = assay: Downregulation of TMPRSS2 protein level in human VCaP cells incubated for 48 hrs by Western blot analysis; assay type: functional, cell-based; conditions: dose 1-10 µM
[15] = Metabolic stability in mouse liver microsomes assessed as intrinsic clearance at 2 uM preincubated for 10 mins in the presence of NADPH followed by compound addition and measured per mg protein after 60 mins by LC-MS/MS analysis; assay type: ADME, Microsome; conditions: read-out: CLH
[16] = Half-life in ICR mouse at 10 mg/kg, po measured by LC-MS/MS analysis; assay type: ADME, organism-based; conditions: in vivo
LNCaP [17] = assay: Antitumor activity against human LNCaP cells xenografted in NOD SCID mouse assessed as tumor growth inhibition at 60 mg/kg, po administered daily for 4 weeks relative to control; assay type: functional; conditions: 672 h, read-out: TGI
[18] = Cmax in beagle dog at 1 mg/kg, iv measured by LC-MS/MS analysis; assay type: ADME, organism-based, Canis lupus familiaris; parameters: dose 1 mg/kg, route iv; conditions: in vivo
LNCaP [19] = assay: Downregulation of TMPRSS2 protein level in human LNCaP cells incubated for 48 hrs by Western blot analysis; assay type: functional, cell-based; conditions: dose 1-10 µM
[20] = Cmax in ICR mouse at 10 mg/kg, po measured by LC-MS/MS analysis; assay type: ADME, organism-based; parameters: dose 10 mg/kg, route po; conditions: in vivo
[21] = Stability in human plasma assessed as parent compound remaining measured after 30 mins by LC-MS/MS analysis; assay type: ADME, cell-free; conditions: read-out: Stability
[22] = Metabolic stability in mouse liver microsomes assessed as parent compound remaining at 2 uM preincubated for 10 mins followed by compound addition and measured after 60 mins by LC-MS/MS analysis; assay type: ADME, Microsome; conditions: read-out: Stability
[23] = Half-life in beagle dog at 5 mg/kg, po measured by LC-MS/MS analysis; assay type: ADME, organism-based, Canis lupus familiaris; conditions: in vivo
[24] = AUC(0 to t) in ICR mouse at 10 mg/kg, po measured by LC-MS/MS analysis; assay type: ADME, organism-based; parameters: dose 10 mg/kg, route po; conditions: in vivo
RWPE-1 = assay: Cytotoxicity against human RWPE-1 cells assessed as reduction in cell viability incubated for 6 days by CCK8 assay; assay type: toxicity, cell-based; conditions: rwpe-1, 144 h, time 6 day
[25] = Stability in human plasma assessed as parent compound remaining measured after 120 mins by LC-MS/MS analysis; assay type: ADME, cell-free; conditions: read-out: Stability
[26] = Downregulation of FKBP51 protein level in human VCaP cells at 10 uM incubated for 48 hrs by Western blot analysis relative to control; assay type: functional
[27] = Stability in mouse plasma assessed as parent compound remaining measured after 45 mins by LC-MS/MS analysis; assay type: ADME, cell-free; conditions: read-out: Stability
[28] = Stability in mouse plasma assessed as parent compound remaining measured after 120 mins by LC-MS/MS analysis; assay type: ADME, cell-free; conditions: read-out: Stability
[29] = Metabolic stability in human liver microsomes assessed as parent compound remaining at 2 uM preincubated for 10 mins in the presence of NADPH followed by compound addition and measured after 60 mins by LC-MS/MS analysis; assay type: ADME, Microsome; conditions: read-out: Stability
[30] = Stability in mouse plasma assessed as parent compound remaining measured after 15 mins by LC-MS/MS analysis; assay type: ADME, cell-free; conditions: read-out: Stability
[31] = Toxicity in ICR mouse assessed as heart damage at 20 to 60 mg/kg, po administered daily for 14 days; assay type: organism-based; conditions: in vivo, 336 h, dose 20-60 mg/kg, time 14 day
DU-145 = assay: Antiproliferative activity against AR-independent human DU-145 cells assessed as reduction in cell viability at 10 uM incubated for 6 days by CCK-8 assay; assay type: functional, cell-based; conditions: time 6.0 day
[32] = Clearance in ICR mouse at 2 mg/kg, iv measured by LC-MS/MS analysis; assay type: ADME, organism-based; conditions: in vivo
[33] = Tmax in beagle dog at 5 mg/kg, po measured by LC-MS/MS analysis; assay type: ADME, organism-based, Canis lupus familiaris; conditions: in vivo
[34] = Oral bioavailability in beagle dog at 5 mg/kg measured by LC-MS/MS analysis; assay type: ADME, organism-based, Canis lupus familiaris; conditions: in vivo
[35] = Toxicity in ICR mouse assessed as liver damage at 20 to 60 mg/kg, po administered daily for 14 days; assay type: organism-based; conditions: in vivo, 336 h, dose 20-60 mg/kg, time 14 day
VCaP [36] = assay: Induction of apoptosis in human VCaP cells assessed as caspase-3 cleavage at 5 to 10 uM incubated for 48 hrs by Western blot analysis; assay type: functional, cell-based; conditions: dose 5-10 µM
[37] = Tmax in beagle dog at 1 mg/kg, iv measured by LC-MS/MS analysis; assay type: ADME, organism-based, Canis lupus familiaris; conditions: in vivo
[38] = Stability in human plasma assessed as parent compound remaining measured after 45 mins by LC-MS/MS analysis; assay type: ADME, cell-free; conditions: read-out: Stability
PC-3 = assay: Antiproliferative activity against AR-independent human PC-3 cells assessed as reduction in cell viability at 10 uM incubated for 6 days by CCK-8 assay; assay type: functional, cell-based; conditions: time 6.0 day
[39] = AUC(0 to t) in beagle dog at 1 mg/kg, iv measured by LC-MS/MS analysis; assay type: ADME, organism-based, Canis lupus familiaris; parameters: dose 1 mg/kg, route iv; conditions: in vivo
[40] = Stability in human plasma assessed as parent compound remaining measured immediately by LC-MS/MS analysis; assay type: ADME, cell-free; conditions: read-out: Stability
[41] = Metabolic stability in human liver microsomes assessed as intrinsic clearance at 2 uM preincubated for 10 mins in the presence of NADPH followed by compound addition and measured per mg protein after 60 mins by LC-MS/MS analysis; assay type: ADME, Microsome; conditions: read-out: CLH
[42] = Tmax in ICR mouse at 2 mg/kg, iv measured by LC-MS/MS analysis; assay type: ADME, organism-based; conditions: in vivo

For CC(C)(c1ccc(OCC2CCN(CC3CCN(c4ccc5c(c4)C(=O)N(C4CCC(=O)NC4=O)C5=O)CC3)CC2)cc1)c1ccc(OC[C@H](O)CCl)cc1 (stereo partly specified), the Activity (VCaP [1]) was “Dose-Dependent Effect”, the AUC(0-t) [2] was 3020 ng·h/mL and the Activity [3] was ~25%. For the same compound, the Activity [4] was “Non-Toxic”, the IC50 (CWR22R) was 4.08 µM and the AUCt [5] was 1411 ng·h/mL. The bioavailability [6] was 40.5%, the Activity [7] was ~45% and the Activity [8] was “Non-Toxic”. The half-life [9] was 8.2 h, the clearance [10] was 15.5 mL/min/kg and the Activity [11] was “Non-Toxic”. The Tmax [12] was 4.7 h, the Activity [13] was >80% and the Activity (VCaP [14]) was “Dose-Dependent Effect”. For the same compound, the microsomal CLint at 2 µM [15] was 7.4 µL/min/mg, the half-life [16] was 7.9 h and the inhibition in vivo at 60 mg/kg (LNCaP [17]) was 76%. For the same compound, the Cmax [18] was 150 ng/mL, the Activity (LNCaP [19]) was “Dose-Dependent Effect” and the Cmax [20] was 376 ng/mL. It also gave a remaining at 0.5 h [21] of 92.1%, a remaining at 1 h, 2 µM [22] of 99.5% and a half-life [23] of 31.2 h. For the same compound, the AUC(0-t) [24] was 5950 ng·h/mL, the Activity (RWPE-1) was “Non-Toxic” and the remaining at 2 h [25] was 87.3%. The Activity [26] was ~25%, the remaining at 0.75 h [27] was 102% and the remaining at 2 h [28] was 91.2%. The remaining at 1 h, 2 µM [29] was 80.9%, the remaining at 0.25 h [30] was 88% and the Activity [31] was “Non-Toxic”. For the same compound, the Activity (DU-145) was “inactive”, the clearance [32] was 9.9 mL/min/kg and the Tmax [33] was 2.8 h. For the same compound, the F [34] was 69.3%, the Activity [35] was “Non-Toxic” and the Activity (VCaP [36]) was “Active”. For the same compound, the Tmax [37] was 6 min, the remaining at 0.75 h [38] was 93.9% and the Activity (PC-3) was “inactive”. It also gave an AUCt [39] of 919 ng·h/mL, a remaining at 0 min [40] of 100% and a microsomal CLint at 2 µM [41] of 7.4 µL/min/mg. For the same compound, the Tmax [42] was 6 min.
